These results are taken from patent US9624167B2, “N-(4-hydroxy-4-methyl-cyclohexyl)-4-phenyl-benzenesulfonamides and N-(4-hydroxy-4-methyl-cyclohexyl)-4-(2-pyridyl)benzenesulfonamides and their therapeutic use” (PIMCO 2664 LIMITED, priority 2013, dated 2017).

For series [1], the system named is TK6 human lymphoblastoid cell line. As to the kind of experiment: GreenScreen HC cytotoxicity (propidium iodide uptake). The series is classed as cell-based. Conditions: for Cytotoxicity, LEC, 48 h, −S9: absence of S9 fraction; for Cytotoxicity, LEC, 48 h, +S9: presence of S9 fraction; for Cytotoxicity, LEC, 24 h: lowest effective concentration for loss of cell viability. On the procedure: (§1) GreenScreen HC is a mammalian cell-based assay for measuring the genotoxicity and cytotoxicity of chemical compounds and mixtures.
Cytotoxicity is measured in the GreenScreen assay alongside genotoxicity and the results of the cytotoxicity assessment are used to normalise the genotoxicity measurements as described above.
In the GreenScreen HC assay, cell viability is assessed using a propidium iodide uptake assay. Propidium iodide is an intercalating agent and a fluorescent molecule that can be used to stain cells. It is commonly used to quantitatively assess DNA content to evaluate cell viability or DNA content in cell cycle analysis and can be used to differentiate necrotic, apoptotic and normal cells (see, e.g., Dengler et al., 1995, Anticancer Drugs, Vol. 6, No. 4, pp. 522-532). Exposure to a cytotoxic compound increases the uptake of propidium iodide, which is monitored by optical absorbance and is proportional to […]. Cytotoxic compounds are those that show an observed decrease in relative population survival below a significance threshold set at 90% compared to vehicle-treated control, at one or more test concentrations.
(§2) A dilution series of each test compound is generated in parallel in a 96-well, black microplate with an optically clear base. A standard genotoxic compound (methyl methanesulfonate, MMS) is added as an intra-plate quality control check. The plates are analysed at 24 hour and 48 hour time points using a microplate reader, which provides measurements of light absorbance and fluorescence for cells and solutions in the microplates wells.
(§3) In addition to measurements of cell viability and genotoxicity described above, the GreenScreen assay incorporates an assessment of the effects of metabolic activation in the assay, the “GreenScreen HC S9 assay”. To accomplish this, the cells are incubated both in the presence of and absence of the post-mitochondrial supernatant liver extract (known as “S9”). S9 is routinely used in genetic toxicology to supplement the test cells with mammalian phase I metabolism. To assess metabolic activation, compounds are incubated with the TK6 strain in the presence of 1% v/v S9 fraction mix for 3 hours with a subsequent 45 hour recovery time. After the recovery period, the GFP fluorescence signal and cell viability (assessed by propidium iodide uptake) are measured using a flow cytometer. Cyclophosphamide, a commonly used control in genotoxicity studies utilising metabolic activation, is used as the positive control in the assay. In the GreenScreen HC S9 assay, genotoxicity is evaluated by induction in GFP expression quantified using the mean sample fluorescence and cytotoxicity using the propidium iodide uptake assay described above. The statistically defined threshold for a positive genotoxicity result is 1.3, i.e. 30% induction over and above the baseline for the vehicle-treated control and the result is reported as positive or negative. Cytotoxic compounds are those that show an observed decrease in relative population survival below a significance threshold set at 90% compared to vehicle-treated control, at one or more test concentrations.
Stably transfected reporter cell lines were derived from the p53-competent human lymphoblastoid TK6 cell line. The reporter cell line carries an episomally replicating plasmid bearing the upstream promoter region and other regulatory sequences of the human GADD45a gene linked to a human optimised Green Fluorescent Protein (GFP) gene. The control cell line carries an identical plasmid except for the removal of 4 base pairs at the start of the EGFP gene, such that GFP is not produced. Both plasmids also carry a gene conferring resistance to hygromycin B to the cell line, allowing continued selection for plasmid presence (200 μg/mL hygromycin B; Invitrogen Corporation, Carlsbad, Calif.). […]

Series [2] relates to GADD45a-GFP reporter in TK6 human lymphoblastoid cell line. As to the kind of experiment: GreenScreen HC genotoxicity (GADD45a-GFP reporter). The series is classed as cell-based. Particulars: GreenScreen HC, positive or negative.
Source text: as §1
The term genotoxic is used to describe substances that are capable of causing damage to genetic material (DNA) within a cell, which may ultimately have mutagenic, carcinogenic or teratogenic effects in humans.
The GreenScreen assay reports genotoxic stress as an increase in fluorescence from a genetically modified derivative of the p53-competent TK6 human lymphoblastoid cell line. In the modified cells, regulatory DNA sequences which promote the transcription of the GADD45a gene control the expression of Green Fluorescent Protein (GFP). GADD45a has a central role in genomic integrity, and genotoxic stress induces its transcription. Exposure to a genotoxic compound therefore increases the expression of GFP, which is observed as an increase in fluorescence and which is monitored by fluorescent detection using a plate reader or flow cytometer. In the GreenScreen HC assay fluorescence is normalised to the optical absorbance measurement to correct for variation in cell yield caused by loss of cell viability or cytotoxicity. The statistically defined threshold for a positive result in the GreenScreen HC assay is 1.5, i.e., 50% induction over and above the baseline for the vehicle-treated control.
as §2, §3
Stably transfected reporter cell lines were derived from the p53-competent human lymphoblastoid TK6 cell line. The reporter cell line carries an episomally replicating plasmid bearing the upstream promoter region and other regulatory sequences of the human GADD45a gene linked to a human optimised Green Fluorescent Protein (GFP) gene. The control cell line carries an identical plasmid except for the removal of 4 base pairs at the start of the EGFP gene, such that GFP is not produced. […]

Series [3] is described as follows: Human Liver Microsomal Stability. Particulars: both sexes, pooled liver microsomes, 1 μM compound. The series is classed as in vitro ADME. The method, then: Metabolic stability was measured by determining the rate of disappearance of compound in the presence of human liver microsomal preparations, as quantified by liquid chromatography mass-spectrometry and […] mass-spectrometry (LC-MS/MS).
Metabolic stability of test compounds was measured by determination of the rate of disappearance of the compound when incubated in the presence of human liver microsomes. Liver microsomes are prepared from the endoplasmic reticulum of hepatocytes and are the primary source of the most important enzymes (cytochrome P450s) involved in drug metabolism. Study of drug stability in the presence of liver microsomes is accepted as a valuable model permitting rapid prediction of in vivo drug stability.
Human liver microsomes were obtained from a commercial source. Test compounds (1 μM) were incubated with pooled liver microsomes (male and female). Samples were incubated for a 60 minute period and removed at up to 6 time points and analysed by LC-MS/MS for the presence/amount of test compounds.
Microsomes (final protein concentration 0.25 or 0.5 mg/mL), 0.1 M phosphate buffer pH 7.4, and test compound (final concentration 1 μM; diluted from 10 mM stock solution to give a final DMSO concentration of 0.1%) were incubated at 37° C. prior to the addition of Nicotinamide adenine dinucleotide phosphate (NADPH, final concentration 1 mM) to initiate the reaction. The final incubation volume was 100 μL. A control incubation was included for each compound tested, where 0.1 M phosphate buffer pH 7.4 was added instead of NADPH. […]
Each compound was incubated for 0, 5, 15, 30, 45 or 60 minutes. The reactions were stopped by the addition of 100 μL ice-cold acetonitrile containing internal standard (0.001 mM glipizide) at the appropriate time points. The incubation plates were centrifuged at 4000 rpm for 15 minutes at 4° C. to precipitate the protein and 0.1 mL aliquots were analysed using LC-MS/MS, with the conditions shown in the following table.
From a plot of the natural logarithm of the peak area ratio (i.e., the ratio of compound peak area:internal standard peak area) against time, the gradient of the line was determined.
A general note: Liver microsomes are vesicles of endoplasmic reticulum, rich in cytochrome P450 enzymes.

The mark [4] stands for this setting: pH 7.4, human liver microsomes 0.25 mg/mL protein, 5 time points 0-60 min, one replicate, read-out: T1/2 (1).
The mark [5] stands for this setting: pH 7.4, human liver microsomes 0.5 mg/mL protein, 6 time points 0-60 min, two replicates, read-out: T1/2 (2).

Molecules are shown by their SMILES. Where two headings read alike, the source gives them in different places.

`C[C@]1(O)CC[C@H](NS(=O)(=O)c2ccc(-c3c(F)cc(F)cc3F)cc2)CC1` [HMC-C-03-A, 2′,4′,6′-Trifluoro-N-((1r,4r)-4-hydroxy-4-methylcyclohexyl)biphenyl-4-sulfonamide]: in series [1], the “Cytotoxicity, LEC, 48 h, −S9” value amounted to 0.06 µM; the “Cytotoxicity, LEC, 48 h, +S9” value was found to be 15 µM; the “Cytotoxicity, LEC, 24 h” value amounted to 0.24 µM. Besides, the Genotoxicity entry in series [2] is given as “Negative”. Moreover, the half-life at 1 μM in series [3] (setting [4]) was found to be 1.4 h.
For `C[C@]1(O)CC[C@@H](NS(=O)(=O)c2ccc(-c3ccc(F)cc3F)c(F)c2)CC1` [HMC-C-04-B, 2,2′,4′-Trifluoro-N-((1s,4s)-4-hydroxy-4-methylcyclohexyl)-[1,1′-biphenyl]-4-sulfonamide], in series [3] (setting [5]), the half-life at 1 μM was 1.78 h.
For the compound `O=S(=O)(N[C@H]1CC[C@H](O)CC1)c1ccc(-c2ncc(Cl)cc2Cl)cc1` [ABD836, reference compound], in series [1], the “Cytotoxicity, LEC, 48 h, −S9” value came out at 0.01 µM; the “Cytotoxicity, LEC, 48 h, +S9” value amounted to 40 µM; the “Cytotoxicity, LEC, 24 h” value was 0.04 µM. In addition, the Genotoxicity entry in series [2] was “Positive”. In series [3] (setting [4]), the half-life at 1 μM is above 15 h.
As for `C[C@]1(O)CC[C@@H](NS(=O)(=O)c2ccc(-c3ncc(F)cc3F)c(F)c2)CC1` [HMC-N-01-B, 4-(3,5-Difluoropyridin-2-yl)-3-fluoro-N-((1s,4s)-4-hydroxy-4-methylcyclohexyl)benzenesulfonamide], in series [1], the “Cytotoxicity, LEC, 48 h, −S9” value turned out to be 0.05 µM; the “Cytotoxicity, LEC, 48 h, +S9” value stood at 5.85 µM; the “Cytotoxicity, LEC, 24 h” value was found to be 0.01 µM. For the same compound, in series [2], the Genotoxicity entry is on record as “Negative”. Moreover, the half-life at 1 μM in series [3] (setting [5]) came out at 2.12 h.
As to `C[C@]1(O)CC[C@@H](NS(=O)(=O)c2ccc(-c3ccc(F)cc3C(F)(F)F)cc2)CC1` [HMC-C-02-B, 4′-Fluoro-N-((1s,4s)-4-hydroxy-4-methylcyclohexyl)-2′-(trifluoromethyl)-[1,1′-biphenyl]-4-sulfonamide], the half-life at 1 μM in series [3] (setting [5]) was 0.3 h.
Consider `C[C@]1(O)CC[C@@H](NS(=O)(=O)c2ccc(-c3c(F)cc(F)cc3F)cc2)CC1` [HMC-C-03-B, 2′,4′,6′-Trifluoro-N-((1s,4s)-4-hydroxy-4-methylcyclohexyl)-[1,1′-biphenyl]-4-sulfonamide], for which, in series [1], the “Cytotoxicity, LEC, 48 h, −S9” value came out at 0.08 µM; the “Cytotoxicity, LEC, 48 h, +S9” value turned out to be 10.8 µM; the “Cytotoxicity, LEC, 24 h” value was 0.17 µM. Further, the Genotoxicity entry in series [2] is “Positive”. Also, in series [3] (setting [5]), the half-life at 1 μM turned out to be 0.8 h.
On to `C[C@]1(O)CC[C@@H](NS(=O)(=O)c2ccc(-c3ccc(Cl)cc3C#N)cc2)CC1` [HMC-C-01-B, 4′-Chloro-2′-cyano-N-((1s,4s)-4-hydroxy-4-methylcyclohexyl)-[1,1′-biphenyl]-4-sulfonamide], for which, in series [1], the “Cytotoxicity, LEC, 48 h, −S9” value was 0.005 µM; the “Cytotoxicity, LEC, 48 h, +S9” value was determined as 4.82 µM; the “Cytotoxicity, LEC, 24 h” value was 0.08 µM. Besides, in series [2], the Genotoxicity result is reported as “Negative”. Further, in series [3] (setting [5]), the half-life at 1 μM amounted to 1.17 h.
As to `C[C@]1(O)CC[C@@H](NS(=O)(=O)c2ccc(-c3ncc(Cl)cc3Cl)cc2)CC1` [HMC-N-03-B, 4-(3,5-Dichloropyridin-2-yl)-N-((1s,4s)-4-hydroxy-4-methylcyclohexyl)benzenesulfonamide], the half-life at 1 μM in series [3] (setting [5]) was 1.17 h.
For the compound `C[C@]1(O)CC[C@H](NS(=O)(=O)c2ccc(-c3ccc(Cl)cc3C#N)cc2)CC1` [HMC-C-01-A, 4′-Chloro-2′-cyano-N-((1r,4r)-4-hydroxy-4-methylcyclohexyl)biphenyl-4-sulfonamide], in series [1], the “Cytotoxicity, LEC, 48 h, −S9” value is 0.12 µM; the “Cytotoxicity, LEC, 48 h, +S9” value was determined as 60 µM; the “Cytotoxicity, LEC, 24 h” value was found to be 0.47 µM. The Genotoxicity entry in series [2] is recorded as “Negative”. Further, the half-life at 1 μM in series [3] (setting [4]) was found to be 1.37 h.
The matching figures for `Cc1cc(S(=O)(=O)N[C@H]2CC[C@H](O)CC2)ccc1-c1ccc(F)cc1F` [ABD735]: 0.31 µM, 5 µM, 0.31 µM, “Negative” and 8.73 h.
In the case of `C[C@]1(O)CC[C@H](NS(=O)(=O)c2ccc(-c3ccc(F)cc3F)cc2)CC1` [ABD900, reference compound], in series [1], the “Cytotoxicity, LEC, 48 h, −S9” value is 0.07 µM; the “Cytotoxicity, LEC, 48 h, +S9” value came out at 74.1 µM; the “Cytotoxicity, LEC, 24 h” value was determined as 0.29 µM. In addition, the Genotoxicity result in series [2] was “Negative”. Moreover, the half-life at 1 μM in series [3] (setting [5]) worked out at 1.45 h.
As to `C[C@]1(O)CC[C@H](NS(=O)(=O)c2ccc(-c3ncc(F)cc3F)cc2)CC1` [HMC-N-02-A, 4-(3,5-Difluoropyridin-2-yl)-N-((1r,4r)-4-hydroxy-4-methylcyclohexyl)benzenesulfonamide], in series [1], the “Cytotoxicity, LEC, 48 h, −S9” value is 0.47 µM; the “Cytotoxicity, LEC, 48 h, +S9” value was 120 µM; the “Cytotoxicity, LEC, 24 h” value is 0.94 µM. Further, the Genotoxicity result in series [2] is reported as “Negative”. For the same compound, in series [3] (setting [4]), the half-life at 1 μM came to 6.12 h.
In the case of `C[C@]1(O)CC[C@H](NS(=O)(=O)c2ccc(-c3ccc(F)cc3F)c(F)c2)CC1` [HMC-C-04-A, 2,2′,4′-Trifluoro-N-((1r,4r)-4-hydroxy-4-methylcyclohexyl)-[1,1′-biphenyl]-4-sulfonamide], the half-life at 1 μM in series [3] (setting [5]) amounted to 1.67 h.
